Experimental data taken from US8815523B2, “Method for live-cell activity assay” (Korea Institute of Science and Technology, priority 2010, dated 2014).

Assays:
Type in all cases: cell-based
intracellular caspases [1] = assay: Nanowire sandwich assay of intracellular caspase activity, TAMRA-labelled substrate peptide, fluorescence microscope; details: 200 nM apoptosis inducing agent in medium, 4 hours; 555 nm excitation/590 nm emission; FIG. 6D
Experimental: Since the fragments released into cells have TAMRA dye and can be identified by fluorescence microscope, activation of caspases may be confirmed based thereon.
As described in Example 5, peptides were fixed to nanowires using SMPH linker, and the peptide-fixed nanowires were positioned down, cell-fixed nanowire were positioned up, and they were contacted in a sandwich manner and incubated in DMEM containing penicillin (100 units/ml), streptomycin (0.1 mg/ml), 10% FBS and 200 nM Staurosporine (apoptosis inducing agent, Sigma) at 37° C., 5% CO2 for 4 hours.

intracellular caspases [2] = assay: Nanowire sandwich assay of intracellular caspase activity, mass analysis (MALDI-TOF) of substrate peptide; details: 500 nM Staurosporine, 18 hours; FIG. 8C
[3] = tested on: Protein tyrosine phosphatase (PTP) in HeLa cells; assay: Nanowire sandwich assay of intracellular PTP activity with PTP inhibitors (MALDI-TOF of substrate peptide); details: 100 μM sodium orthovanadate and 40 μM α-bromo-4-hydroxyacetophenone given together, 40 minutes pre-incubation, then 1 hour sandwich incubation, FIG. 5C
Experimental: Specifically, the silicon nanowires prepared in Example 1 were washed with 100% (v/v) isopropyl alcohol before use and dried at room temperature, and then, introduced in 2 ml of toluene solution containing 100 μl of APTMS (Aminopropyl trimethoxysilane), reacted at room temperature for 2 hours, and washed 3 times respectively with toluene, 100% ethanol and distilled water, and finally washed with PBS (Phosphate Buffered Saline) to complete silanization so that the surface of the silicon nanowire has positively charged ammonium group. […]
The cell-fixed nanowires were positioned down, the PTP substrate peptide-fixed nanowires were positioned up, and they were contacted with each other, and then, incubated in DMEM medium containing penicillin (100 units/ml), streptomycin (0.1 mg/ml), and 10% FBS at 37° C., 5% CO2 for 1 hour. After incubation, the cell-fixed silicon nanowires and the peptide-fixed nanowires were separated from each other, and the peptide-fixed nanowires were washed with PBS and introduced in a buffer containing 50 mM Tris-HCl, pH 7.5, 0.5 mM EDTA, and 1 mM DTT (Dithiothreitol), and TEV protease (10 units/150 μl, Invitrogen) were added and treated at room temperature for 2 hours, and then, desalting was conducted with Zip-TIP (MILLIPORE), and changes of peptides were analyzed by MALDI-TOF (Applied Biosystems). […]

| Structure (SMILES) | intracellular caspase activation: TAMRA dye-containing peptide fragments released into the cells (intracellular caspases [1]) | cleavage of caspase substrate peptide (mass peak of 1041 dalton) (intracellular caspases [2]) | 1204 dalton peak (dephosphorylated PTP substrate peptide) in MALDI-TOF [3] |
| --- | --- | --- | --- |
| CN[C@@H]1C[C@H]2O[C@@](C)([C@@H]1OC)n1c3ccccc3c3c4c(c5c6ccccc6n2c5c31)C(=O)NC4 [Staurosporine] | intracellular caspases are activated | cleaved by caspase activated by staurosporine |  |
| [Na+].[Na+].[Na+].[O]=[V]([O-])([O-])[O-] [sodium orthovanadate] |  |  | remarkably reduced |
| O=C(CBr)c1ccc(O)cc1 [α-bromo-4-hydroxyacetophenone] |  |  | remarkably reduced |
